Active and inactive are the calls of the source. The calls are words filed in the database; no cut-off is given here.
What was measured:
[1] = Anti-inflammatory activity against HBE cells assessed as inhibition of LPS-induced IL-8 level at 5 uM pretreated for 30 mins followed by LPS treatment for 24 hrs by ELISA relative to control; type: functional; conditions: Homo sapiens, time 24.5 hrs
[2] = biological target: T1, Procathepsin L (Homo sapiens, UniProt P07711); experiment: Inhibition of CTSL maturation in HBE cells pretreated for 30 mis followed by LPS treatment for 16 hrs by Western blot analysis; type: cell-based; conditions: dose 0.5-5 µM, time 16.5 hrs
Target sequence in this assay (P07711 114-333 limits assumed): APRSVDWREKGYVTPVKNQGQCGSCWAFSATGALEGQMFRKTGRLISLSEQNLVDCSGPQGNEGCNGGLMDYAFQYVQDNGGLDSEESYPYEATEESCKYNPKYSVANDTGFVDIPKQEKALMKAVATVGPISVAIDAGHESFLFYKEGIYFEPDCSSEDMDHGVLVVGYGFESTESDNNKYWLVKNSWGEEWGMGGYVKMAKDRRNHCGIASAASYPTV

[3] = biological target: T1, Procathepsin L; experiment: Inhibition of recombinant human Cat L using f Z-Phe-Arg-AMC as substrate preincubated for 30 mins followed by substrate addition
Target sequence in this assay (P07711 whole entry): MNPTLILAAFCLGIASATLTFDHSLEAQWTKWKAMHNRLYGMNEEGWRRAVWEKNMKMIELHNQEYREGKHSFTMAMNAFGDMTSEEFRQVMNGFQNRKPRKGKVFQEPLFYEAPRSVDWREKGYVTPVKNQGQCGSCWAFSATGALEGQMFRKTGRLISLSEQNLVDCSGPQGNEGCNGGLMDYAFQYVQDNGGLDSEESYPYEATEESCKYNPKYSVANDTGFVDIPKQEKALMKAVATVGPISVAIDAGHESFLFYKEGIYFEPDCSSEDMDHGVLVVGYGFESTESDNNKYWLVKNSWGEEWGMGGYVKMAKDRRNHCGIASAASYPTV

[4] = test system: HBE; experiment: Anti-inflammatory activity against HBE cells assessed as inhibition of LPS-induced p-p65 level pretreated for 30 mis followed by LPS treatment for 16 hrs by Western blot analysis; type: functional, cell-based; conditions: Homo sapiens, dose 0.5-5 µM, time 16.5 hrs
[5] = biological target: Receptor-type tyrosine-protein kinase FLT3 (Homo sapiens) (UniProt P36888); experiment: Inhibition of FLT3 (unknown origin) at 1 uM by kinase profiling analysis relative to control
[6] = biological target: T2, Serine/threonine-protein kinase Chk1 (Homo sapiens) (UniProt O14757); experiment: Inhibition of CHK1 (unknown origin) at 1 uM by kinase profiling analysis relative to control
T2 sequence (whole entry): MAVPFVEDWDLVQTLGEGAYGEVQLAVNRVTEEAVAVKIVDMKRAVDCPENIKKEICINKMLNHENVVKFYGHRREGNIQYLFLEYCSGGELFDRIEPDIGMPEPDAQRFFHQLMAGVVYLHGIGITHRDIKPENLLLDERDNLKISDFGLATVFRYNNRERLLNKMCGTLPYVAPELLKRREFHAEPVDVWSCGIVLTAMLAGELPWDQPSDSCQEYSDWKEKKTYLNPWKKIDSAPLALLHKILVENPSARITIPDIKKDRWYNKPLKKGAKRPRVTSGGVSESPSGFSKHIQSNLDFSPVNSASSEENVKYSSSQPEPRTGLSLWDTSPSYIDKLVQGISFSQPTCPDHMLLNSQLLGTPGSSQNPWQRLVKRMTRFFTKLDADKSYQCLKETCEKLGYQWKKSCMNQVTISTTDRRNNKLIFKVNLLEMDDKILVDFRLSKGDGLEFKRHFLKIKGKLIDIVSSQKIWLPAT

[7] = biological target: T3, Tyrosine-protein kinase JAK3 (Homo sapiens, UniProt P52333); experiment: Inhibition of JAK3 (unknown origin) using TK-biotin as substrate incubated for 30 mins in presence of ATP by HTRF assay
T3 sequence (P52333 whole entry): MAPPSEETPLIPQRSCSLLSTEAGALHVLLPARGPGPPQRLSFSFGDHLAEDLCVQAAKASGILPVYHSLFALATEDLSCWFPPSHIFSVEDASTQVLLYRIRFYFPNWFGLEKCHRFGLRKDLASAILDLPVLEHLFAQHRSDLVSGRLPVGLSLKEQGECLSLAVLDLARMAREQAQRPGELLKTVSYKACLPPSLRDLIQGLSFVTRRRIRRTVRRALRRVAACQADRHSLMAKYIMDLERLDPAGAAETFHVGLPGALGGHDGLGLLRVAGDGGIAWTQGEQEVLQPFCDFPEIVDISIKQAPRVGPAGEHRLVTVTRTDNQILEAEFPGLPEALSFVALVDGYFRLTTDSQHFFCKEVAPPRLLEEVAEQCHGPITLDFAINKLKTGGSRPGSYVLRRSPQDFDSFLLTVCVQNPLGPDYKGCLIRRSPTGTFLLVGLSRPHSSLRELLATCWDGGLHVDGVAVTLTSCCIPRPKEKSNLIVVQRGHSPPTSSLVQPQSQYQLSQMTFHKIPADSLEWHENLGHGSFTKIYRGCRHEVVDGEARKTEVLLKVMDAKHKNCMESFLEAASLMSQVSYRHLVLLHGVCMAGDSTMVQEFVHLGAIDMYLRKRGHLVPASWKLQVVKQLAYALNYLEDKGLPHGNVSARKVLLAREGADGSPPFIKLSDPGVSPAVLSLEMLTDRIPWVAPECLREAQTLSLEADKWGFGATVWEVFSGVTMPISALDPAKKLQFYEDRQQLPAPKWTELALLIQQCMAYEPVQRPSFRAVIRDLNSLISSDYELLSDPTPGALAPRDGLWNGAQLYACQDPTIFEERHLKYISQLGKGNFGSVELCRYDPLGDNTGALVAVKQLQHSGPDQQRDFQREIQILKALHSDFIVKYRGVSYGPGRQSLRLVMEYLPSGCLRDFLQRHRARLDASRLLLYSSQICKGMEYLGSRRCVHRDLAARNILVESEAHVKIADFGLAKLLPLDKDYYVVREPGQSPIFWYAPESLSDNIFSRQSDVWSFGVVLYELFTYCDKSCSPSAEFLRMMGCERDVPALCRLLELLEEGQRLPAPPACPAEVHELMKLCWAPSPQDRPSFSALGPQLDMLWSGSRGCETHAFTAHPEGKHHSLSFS

[8] = test system: Mus musculus; experiment: (§1) Anti-inflammatory activity in C57BL/6 mouse model of LPS-induced acute lung injury assessed as decrease in disruption of epithelial cell structures in lung at 10 mg/kg, ip treated for 3 days followed by LPS treatment after 1 hr post-compound administration on fourth day measured after 18 hrs post-LPS treatment by H and E staining based analysis; type: functional, organism-based; conditions: time 91.0 hrs
[9] = test system: Mus musculus; experiment: as §1, with “endothelial” for “epithelial”; type: functional, organism-based; conditions: time 91.0 hrs
[10] = test system: Mus musculus; experiment: Anti-inflammatory activity in C57BL/6 mouse model of LPS-induced acute lung injury assessed as decrease in number of total cells in BALF at 10 mg/kg, ip treated for 3 days followed by LPS treatment after 1 hr post-compound administration on fourth day measured after 18 hrs post-LPS treatment; type: functional, organism-based; conditions: time 91.0 hrs
[11] = test system: Mus musculus; experiment: Anti-inflammatory activity in C57BL/6 mouse model of LPS-induced acute lung injury assessed as decrease in IL-1beta mRNA level in lung at 10 mg/kg, ip treated for 3 days followed by LPS treatment after 1 hr post-compound administration on fourth day measured after 18 hrs post-LPS treatment by RT-qPCR analysis; type: functional, organism-based; conditions: time 91.0 hrs
[12] = Half life in Sprague-Dawley rat at 3.5 mg/kg, iv measured for 24 hrs by LC-MS/MS analysis; type: ADME, organism-based; conditions: in vivo
[13] = Cmax in Sprague-Dawley rat at 3.5 mg/kg, iv measured for 24 hrs by LC-MS/MS analysis; type: ADME, organism-based; conditions: in vivo
[14] = AUC (0 to infinity) in Sprague-Dawley rat at 3.5 mg/kg, ip measured for 24 hrs by LC-MS/MS analysis; type: ADME, organism-based; conditions: in vivo
[15] = AUC (0 to infinity) in Sprague-Dawley rat at 3.5 mg/kg, po measured for 24 hrs by LC-MS/MS analysis; type: ADME, organism-based; conditions: in vivo
[16] = Half life in Sprague-Dawley rat at 3.5 mg/kg, po measured for 24 hrs by LC-MS/MS analysis; type: ADME, organism-based; conditions: in vivo
[17] = cells; conditions: Homo sapiens, HBE
Description: Anti-inflammatory activity against HBE cells assessed as inhibition of LPS-induced IL-6 level pretreated for 30 mins followed by LPS treatment for 24 hrs by ELISA

Receptor-type tyrosine-protein kinase FLT3 (Homo sapiens), sequence (P36888 whole entry): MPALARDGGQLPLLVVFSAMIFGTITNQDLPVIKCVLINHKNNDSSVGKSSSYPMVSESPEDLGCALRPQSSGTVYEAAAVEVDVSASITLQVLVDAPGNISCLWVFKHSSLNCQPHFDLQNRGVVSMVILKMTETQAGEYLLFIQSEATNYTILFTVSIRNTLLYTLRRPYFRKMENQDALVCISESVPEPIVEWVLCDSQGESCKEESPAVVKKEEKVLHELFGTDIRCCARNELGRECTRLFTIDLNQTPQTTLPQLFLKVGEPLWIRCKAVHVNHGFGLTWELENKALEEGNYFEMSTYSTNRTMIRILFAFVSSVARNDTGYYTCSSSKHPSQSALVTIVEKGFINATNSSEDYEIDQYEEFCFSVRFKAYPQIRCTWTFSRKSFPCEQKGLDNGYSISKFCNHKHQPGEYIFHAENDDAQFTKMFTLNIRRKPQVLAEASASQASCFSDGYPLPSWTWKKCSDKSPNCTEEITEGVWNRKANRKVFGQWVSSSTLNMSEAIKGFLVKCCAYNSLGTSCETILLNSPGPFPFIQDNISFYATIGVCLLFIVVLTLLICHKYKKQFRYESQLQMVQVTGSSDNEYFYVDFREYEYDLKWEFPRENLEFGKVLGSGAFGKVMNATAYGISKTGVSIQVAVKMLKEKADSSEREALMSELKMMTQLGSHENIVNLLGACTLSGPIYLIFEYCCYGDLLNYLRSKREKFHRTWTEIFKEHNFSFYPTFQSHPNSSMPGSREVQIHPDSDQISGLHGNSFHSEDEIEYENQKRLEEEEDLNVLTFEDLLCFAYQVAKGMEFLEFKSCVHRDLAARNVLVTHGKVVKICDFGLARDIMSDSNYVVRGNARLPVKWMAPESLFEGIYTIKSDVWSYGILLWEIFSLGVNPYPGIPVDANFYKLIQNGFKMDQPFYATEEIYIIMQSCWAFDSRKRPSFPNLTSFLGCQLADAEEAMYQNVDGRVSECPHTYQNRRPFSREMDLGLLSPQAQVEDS

- inhibition [2]: Dose-dependent-effect
- IC50 [3]: 690 nM
- inhibition [5]: 103%
- inhibition [6]: 81.7%
- IC50 [7]: 27.3 nM
- half-life [12]: 497 min
- Cmax [13]: 655 ng/mL
- AUC(0-inf) [14]: 416 ng·h/mL
- AUC(0-inf) [15]: 159 ng·h/mL
- half-life [16]: 193 min
- IC50 [17]: 614 nM
Structure (SMILES): Cl.Cn1cc(-c2ccnc(Nc3cccc(N)c3)n2)c2ccccc21
- inhibition at 5 µM [1]: 85%
- inhibition [4]: Dose-dependent-effect
- Activity [8]: Active
- Activity [9]: Active
- Activity [10]: Active
- Activity [11]: Active

— ChEMBL document CHEMBL6087451, “Design, Synthesis, and Biological Evaluation of 2-Arylaminopyrimidine Derivatives as Dual Cathepsin L and JAK Inhibitors for the Treatment of Acute Lung Injury” (J Med Chem, 2025)
